Laboratory results: US20150018311A1, “THERAPEUTIC BORON-CONTAINING COMPOUNDS” (priority 2012, published 2015)

Tests used:
Experiment in all cases: Growth in liquid media in presence of test compound
Assay type in all cases: cell-based
[1] = system: Candida albicans (ATCC 90028)
From the text: (§1) Test organisms used were the bacterial strains Escherichia coli (ATCC 25922), Pseudomonas aeruginosa (ATCC 27853), Staphylococcus aureus (ATCC 25923), Streptococcus pyogenes (ATCC 19615), and Mycobacterium tuberculosis (H37Rv), and the yeast strain Candida albicans (ATCC 90028).
(§2) The liquid media used for growth were Luria-Bertani (Becton Dickinson, Sparks, Md.) and Mueller-Hinton (bio-Merieux, Paris, France) broths, but with Saburo medium for Candida and Middlebrook 7H9 medium (Difco) for mycobacteria.
(§3) The strains were grown at 37° C. and after suitable cell concentrations had been reached, 100 μL of each cell suspension was added to a tube with growth media and test compound. Cultivation of the bacteria was then carried out in the presence of each test compound at 37° C. and the tubes examined for visible growth. The compounds were tested at concentrations of either 500 mg/l, 50 mg/l or 5 mg/l. This assay was repeated twice.
(§4) Some compounds were only tested against some test organisms. It will be appreciated that the charge of these molecules will depend on the environment, some of the Examples are shown with a suitable counter ion, some without.

[2] = system: Streptococcus pyogenes (ATCC 19615)
From the text: as §1, §2, §3, §4

[3] = system: Staphylococcus aureus (ATCC 25923)
From the text: as §1, §2, §3, §4

[4] = system: Mycobacterium tuberculosis (H37Rv)
[5] = system: Escherichia coli (ATCC 25922)
From the text: as §1, §2, §3, §4

Row | SMILES | Growth in the presence of test compound, C. albicans ([1]; 5 mg/L) | Growth in the presence of test compound, C. albicans ([1]; 50 mg/L) | Growth in the presence of test compound, C. albicans ([1]; 500 mg/L) | Growth in the presence of test compound, S. pyogenes ([2]; 5 mg/L) | Growth in the presence of test compound, S. pyogenes ([2]; 50 mg/L) | Growth in the presence of test compound, S. pyogenes ([2]; 500 mg/L) | Growth in the presence of test compound, S. aureus ([3]; 5 mg/L) | Growth in the presence of test compound, S. aureus ([3]; 50 mg/L) | Growth in the presence of test compound, S. aureus ([3]; 500 mg/L) | Growth in the presence of test compound, M. tuberculosis ([4]; 5 mg/L) | Growth in the presence of test compound, M. tuberculosis ([4]; 50 mg/L) | Growth in the presence of test compound, M. tuberculosis ([4]; 500 mg/L) | Growth in the presence of test compound, E. coli ([5]; 5 mg/L) | Growth in the presence of test compound, E. coli ([5]; 50 mg/L) | Growth in the presence of test compound, E. coli ([5]; 500 mg/L)
1 | C[C@H](CNC(=O)[C@@H](N)Cc1ccccc1)B1OC2CC3CC(C3(C)C)[C@@]2(C)O1 (stereo partly drawn) [Compound 17] | + | + | ± | + | + | − | + | + | − | + | + | − |  |  | 
2 | CC(N)C(=O)NC(CB1OC2CC3CC(C3(C)C)C2(C)O1)c1ccccc1 (stereo not drawn) [Compound 8] |  |  |  |  |  |  | + | + | ± | + | + | − |  |  | 
3 | CC1(C)C2CC3OB([C@@H](CNC(=O)[C@@H](N)Cc4ccccc4)Cc4ccccc4)O[C@]3(C)C1C2 (stereo partly drawn) [Compound 10] | + | + | ± | + | + | ± | + | + | ± | − | − | − |  |  | 
4 | NCCCC[C@H](N)C(=O)NC[C@@H](CCc1ccccc1)B(O)O [Compound 37] | + | + | − |  |  |  |  |  |  | + | + | − |  |  | 
5 | CC(CB1OC2CC3CC(C3(C)C)C2(C)O1)NC(=O)C(N)CCCCN (stereo not drawn) [Compound 6] |  |  |  |  |  |  |  |  |  | + | + | ± |  |  | 
6 | CC(N)C(=O)NC(CB1OC2CC3CC(C3(C)C)C2(C)O1)Cc1ccccc1 (stereo not drawn) [Compound 3] |  |  |  | + | + | − | + | + | − | + | − | − |  |  | 
7 | CC1(C)C2CC3OB(CCNC(=O)[C@@H](N)CCCCN)O[C@]3(C)C1C2 (stereo partly drawn) [Compound 32] | + | + | − |  |  |  |  |  |  | + | + | − | + | + | ±
8 | C[C@@H](B1OC2CC3CC(C3(C)C)[C@@]2(C)O1)[C@@H](Cc1ccccc1)NC(=O)[C@@H](N)Cc1ccccc1 (stereo partly drawn) [Compound 28] | + | + | ± | + | + | ± | + | + | ± | + | − | − |  |  | 
9 | C[C@H](N)C(=O)N[C@@H](CB(O)O)Cc1ccccc1 [Compound 35] |  |  |  |  |  |  |  |  |  | + | + | − |  |  | 
10 | CC1(C)C2CC3OB(CC(Cc4ccccc4)NC(=O)C(N)Cc4c[nH]c5ccccc45)OC3(C)C1C2 (stereo not drawn) [Compound 5] |  |  |  |  |  |  | + | + | − | + | ± | − |  |  | 
11 | CC1(C)C2CC3OB(CC(Cc4ccccc4)NC(=O)C(N)Cc4ccccc4)OC3(C)C1C2 (stereo not drawn) [Compound 2] |  |  |  |  |  |  |  |  |  | + | + | ± |  |  | 
12 | C[C@H](N)C(=O)NC[C@H](Cc1ccccc1)B(O)O [Compound 40] |  |  |  |  |  |  |  |  |  | ± | ± | − |  |  | 
13 | CC1(C)C2CC3OB([C@@H](CNC(=O)[C@@H](N)Cc4ccccc4)c4ccccc4)O[C@]3(C)C1C2 (stereo partly drawn) [Compound 23] | + | + | − | + | + | − | + | + | − | + | + | − |  |  | 
14 | C[C@@H](NC(=O)[C@@H](N)Cc1ccccc1)[C@@H](Cc1ccccc1)B1OC2CC3CC(C3(C)C)[C@@]2(C)O1 (stereo partly drawn) [Compound 27] | + | + | ± | + | + | ± |  |  |  | + | − | ± |  |  | 
15 | C[C@H](CNC(=O)[C@@H](N)CCCCN)B1OC2CC3CC(C3(C)C)[C@@]2(C)O1 (stereo partly drawn) [Compound 16] | + | + | ± |  |  |  |  |  |  | + | ± | − |  |  | 
16 | N[C@@H](Cc1ccccc1)C(=O)NC[C@@H](CCc1ccccc1)B(O)O [Compound 39] |  |  |  |  |  |  |  |  |  | + | + | − | + | + | −
17 | CC1(C)C2CC3OB(C(CNC(=O)C(N)CCCCN)c4ccccc4)OC3(C)C1C2 (stereo not drawn) [Compound 24] |  |  |  |  |  |  |  |  |  | + | + | − |  |  | 
18 | N[C@@H](Cc1ccccc1)C(=O)N[C@@H](CB(O)O)Cc1ccccc1 [Compound 33] |  |  |  |  |  |  |  |  |  | ± | − | − |  |  | 
